Source: ChEMBL document CHEMBL1141425, “Cytotoxic clerodane diterpenoids and their hydrolysis products from Casearia nigrescens from the rainforest of Madagascar” (J Nat Prod, 2007)

Test system: A2780
Experiment: Cytotoxicity against human A2780 cells
Type: cell-based

SMILES | IC50 [µM]
C=CC(=C)CC[C@]1(C)[C@H](C)[C@@H](OC(C)=O)[C@H](O)[C@@]23C(=C[C@H](OC(=O)CCC)C[C@@H]12)[C@@H](OC(C)=O)O[C@H]3OC(C)=O [CASEANIGRESCEN A] | 1.4
C=CC(=C)CC[C@]1(C)[C@H](C)C[C@H](O)[C@@]2(C=O)C(C=O)=C[C@H](OC(=O)CCC)C[C@@H]12 [CASEANIGRESCEN D2] | 1.5
C=CC(=C)CC[C@]1(C)[C@H](C)[C@@H](O)[C@H](OC(C)=O)[C@@]23C(=C[C@H](OC(=O)CCC)C[C@@H]12)[C@@H](OC(C)=O)O[C@H]3OC(C)=O [CASEANIGRESCEN C] | 1
C=CC(=C)CC[C@]1(C)[C@H](C)C[C@H](O)[C@@]23C(=C[C@H](OC(=O)CCC)C[C@@H]12)[C@@H](OC(C)=O)O[C@H]3OC(C)=O [CASEANIGRESCEN D] | 1
C=CC(=C)CC[C@]1(C)[C@H](C)[C@@H](OC(C)=O)[C@H](O)[C@@]2(C=O)C(C=O)=C[C@H](OC(=O)CCC)C[C@@H]12 | 3.5
C=CC(=C)CC[C@]1(C)[C@H](C)[C@@H](O)[C@H](O)[C@@]23C(=C[C@H](OC(=O)CCC)C[C@@H]12)[C@@H](OC(C)=O)O[C@H]3OC(C)=O [CASEANIGRESCEN B] | 0.83
